Test results published in patent publication US6787543B2, “Benzhydryl derivatives” (Fujisawa Pharmaceutical Co., Ltd., priority 2002, dated 2004).

Test system: emesis in the dog
Test: Emesis in the Dog (apomorphine-induced retching and vomiting)
Format: in vivo
Details: adult female dogs; test compound i.v. at 1.0 mg/kg; 5 min later subcutaneous apomorphine (0.1 mg/0.5 ml/kg); observed for 60 min
Description: Individually housed adult female dogs (8 to 15 kg) were given an i.v. injection of a solution containing a test compound. 5 Min later the emetic responses (retching and vomiting) were induced by administration of subcutaneous apomorphine (0.1 mg/0.5 ml/kg) and observed for the next 60 min. The timing and number of retches and vomits observed were recorded for each animal. An individual animal was tested with at least 10 days between experiments.

Row | Structure (SMILES) | inhibition rate of emesis
1 | COC(=O)N1CCN2[C@H](CN(Cc3cc(-n4nnnc4C(F)(F)F)ccc3OC)C[C@H]2C(c2ccccc2)c2ccccc2)C1.Cl.Cl [Example 28, (6R,9aR)-6-benzhydryl-8-[2-methoxy-5-[5-(trifluoromethyl)-1H-tetrazol-1-yl]benzyl]octahydropyrazino[1,2-a]pyrazine-2-carboxylic acid methyl ester dihydrochloride] | 90%

Test system: not given
Test: not given
Details: not given

Row | melting point | Structure (SMILES)
2 | 171 to 175 °C | CCC(=O)N1CCN2[C@H](CN(Cc3cc(-n4nnnc4C(F)(F)F)ccc3OC)C[C@H]2C(c2ccccc2)c2ccccc2)C1.Cl.Cl
3 | 172 to 175 °C | COc1ccc(-n2nnnc2C(F)(F)F)cc1CN1C[C@@H]2CN(C(=O)C(C)C)CCN2[C@H](C(c2ccccc2)c2ccccc2)C1.Cl.Cl
4 | 162 to 166 °C | CCCC(=O)N1CCN2[C@H](CN(Cc3cc(-n4nnnc4C(F)(F)F)ccc3OC)C[C@H]2C(c2ccccc2)c2ccccc2)C1.Cl.Cl
5 | 153 to 156 °C | CCOC(=O)N1CCN2[C@H](CN(Cc3cc(-n4nnnc4C(F)(F)F)ccc3OC)C[C@H]2C(c2ccccc2)c2ccccc2)C1.Cl.Cl
6 | 147 to 150 °C | COc1ccc(-n2nnnc2C(F)(F)F)cc1CN1C[C@@H]2CN(C(=O)OC(C)C)CCN2[C@H](C(c2ccccc2)c2ccccc2)C1.Cl.Cl
7 | 138 to 150 °C (dec.) | COc1ccc(-n2nnnc2C(F)(F)F)cc1CN1C[C@@H]2CN(C(=O)CC(C)C)CCN2[C@H](C(c2ccccc2)c2ccccc2)C1.Cl.Cl
8 | 143 to 146 °C | CCS(=O)(=O)N1CCN2[C@H](CN(Cc3cc(-n4nnnc4C(F)(F)F)ccc3OC)C[C@H]2C(c2ccccc2)c2ccccc2)C1.Cl.Cl
9 | 146 to 165 °C | CCCS(=O)(=O)N1CCN2[C@H](CN(Cc3cc(-n4nnnc4C(F)(F)F)ccc3OC)C[C@H]2C(c2ccccc2)c2ccccc2)C1.Cl.Cl
10 | 150 to 155 °C | COc1ccc(-n2nnnc2C(F)(F)F)cc1CN1C[C@@H]2CN(S(=O)(=O)C(C)C)CCN2[C@H](C(c2ccccc2)c2ccccc2)C1.Cl.Cl
11 | 177 to 181 °C | COc1ccc(-c2ccsc2)cc1CN1C[C@@H]2CN(C(C)=O)CCN2[C@H](C(c2ccccc2)c2ccccc2)C1.Cl.Cl
12 | 147 to 150 °C | COc1ccc(C(F)(F)F)cc1CN1C[C@@H]2CN(C(C)=O)CCN2[C@H](C(c2ccccc2)c2ccccc2)C1.Cl.Cl
13 | 210 to 215 °C | COc1ccc(-c2ccncc2)cc1CN1C[C@@H]2CN(C(C)=O)CCN2[C@H](C(c2ccccc2)c2ccccc2)C1.Cl.Cl.Cl
14 | 162 to 165 °C | CCOc1ccc(-n2nnnc2C(F)(F)F)cc1CN1C[C@@H]2CN(C(C)=O)CCN2[C@H](C(c2ccccc2)c2ccccc2)C1.Cl.Cl
15 | 173 to 177 °C | COc1ccc(-c2ccoc2)cc1CN1C[C@@H]2CN(C(C)=O)CCN2[C@H](C(c2ccccc2)c2ccccc2)C1.Cl.Cl
16 | 205 to 210 °C | COc1ccncc1CN1C[C@@H]2CN(C(C)=O)CCN2[C@H](C(c2ccccc2)c2ccccc2)C1.Cl.Cl.Cl
17 | 167 to 171 °C | CC(=O)N1CCN2[C@H](CN(Cc3cc(-n4nnnc4C(F)(F)F)ccc3OC(C)C)C[C@H]2C(c2ccccc2)c2ccccc2)C1.Cl.Cl
18 | 170 to 173 °C | COc1cc(OC)c(CN2C[C@@H]3CN(C(C)=O)CCN3[C@H](C(c3ccccc3)c3ccccc3)C2)c(OC)c1.Cl.Cl
